Columns and labels:
Assay in all cases: biochemical
Details in all cases: read-out: Percentage of inhibition / BIIB021 1×10-5 mol/L; competitive radioligand binding
Adenosine A1 (Human) = target: T1, Adenosine A1 (Human) (Homo sapiens, UniProt P30542)
T1 construct: gene ADORA1
Procedure: (§1) Percent inhibition for each protein was calculated following the reported method (Okamura et al. [2013]).

GABA B = target: T2, GABA B (Rattus norvegicus, UniProt Q9Z0U4)
T2 construct: gene Gabbr1
Procedure: as §1

Cannabinoid CB1 (Human) = target: T3, Cannabinoid CB1 (Human) (Homo sapiens, UniProt P21554)
T3 construct: gene CNR1
Procedure: as §1

[1] = target: T4, Dopamine transporter (Human) (Homo sapiens, UniProt Q01959)
T4 construct: gene SLC6A3
Procedure: as §1

Serotonin 5HT1A (Human) = target: T5, Serotonin 5HT1A (Human) (Homo sapiens, UniProt P08908)
T5 construct: gene HTR1A
Procedure: as §1

Endothelin ETA (Human) = target: T6, Endothelin ETA (Human) (Homo sapiens, UniProt P25101)
T6 construct: gene EDNRA
Procedure: as §1

Sigma σ2 = target: T7, Sigma σ2 (Rattus norvegicus, UniProt Q5U3Y7)
T7 construct: gene Tmem97
Procedure: as §1

[2] = target: T8, Norepinephrine transporter (Human) (Homo sapiens, UniProt P23975)
T8 construct: gene SLC6A2
Procedure: as §1

Neurokinin NK1 (Human) = target: T9, Neurokinin NK1 (Human) (Homo sapiens, UniProt P25103)
T9 construct: gene TACR1
Procedure: as §1

β1-Adrenergic (Human) = target: T10, β1-Adrenergic (Human) (Homo sapiens, UniProt P08588)
T10 construct: gene ADRB1
Procedure: as §1

Histamine H1 (Human) = target: T11, Histamine H1 (Human) (Homo sapiens, UniProt P35367)
T11 construct: gene HRH1
Procedure: as §1

Opiate μ (Human) = target: T12, Opiate μ (Human) (Homo sapiens, UniProt P35372)
T12 construct: gene OPRM1
Procedure: as §1

α1B-Adrenergic = target: T13, α1B-Adrenergic (Rattus norvegicus, UniProt P15823)
T13 construct: gene Adra1b
Procedure: as §1

Muscarinic M1 (Human) = target: T14, Muscarinic M1 (Human) (Homo sapiens, UniProt P11229)
T14 construct: gene CHRM1
Procedure: as §1

Angiotensin AT1 (Human) = target: T15, Angiotensin AT1 (Human) (Homo sapiens, UniProt P30556)
T15 construct: gene AGTR1
Procedure: as §1

Androgen = target: T16, Androgen (Rattus norvegicus, UniProt P15207)
T16 construct: gene Ar
Procedure: as §1

Histamine H3 (Human) = target: T17, Histamine H3 (Human) (Homo sapiens, UniProt Q9Y5N1)
T17 construct: gene HRH3
Procedure: as §1

Adenosine A2a (Human) = target: T18, Adenosine A2a (Human) (Homo sapiens, UniProt P29274)
T18 construct: gene ADORA2A
Procedure: as §1

Serotonin 5HT2A (Human) = target: T19, Serotonin 5HT2A (Human) (Homo sapiens, UniProt P28223)
T19 construct: gene HTR2A
Procedure: as §1

[3] = target: T20, Serotonin transporter (Human) (Homo sapiens, UniProt P31645)
T20 construct: gene SLC6A4
Procedure: as §1

Histamine H2 (Human) = target: T21, Histamine H2 (Human) (Homo sapiens, UniProt P25021)
T21 construct: gene HRH2
Procedure: as §1

Neuropeptide Y2 (Human) = target: T22, Neuropeptide Y2 (Human) (Homo sapiens, UniProt P49146)
T22 construct: gene NPY2R
Procedure: as §1

Cannabinoid CB2 (Human) = target: T23, Cannabinoid CB2 (Human) (Homo sapiens, UniProt P34972)
T23 construct: gene CNR2
Procedure: as §1

α2A-Adrenergic (Human) = target: T24, α2A-Adrenergic (Human) (Homo sapiens, UniProt P08913)
T24 construct: gene ADRA2A
Procedure: as §1

Opiate κ (Human) = target: T25, Opiate κ (Human) (Homo sapiens, UniProt P41145)
T25 construct: gene OPRK1
Procedure: as §1

Dopamine D3 (Human) = target: T26, Dopamine D3 (Human) (Homo sapiens, UniProt P35462)
T26 construct: gene DRD3
Procedure: as §1

Serotonin 5HT3 (Human) = target: T27, Serotonin 5HT3 (Human) (Homo sapiens, UniProt P46098)
T27 construct: gene HTR3A
Procedure: as §1

Endothelin ETB (Human) = target: T28, Endothelin ETB (Human) (Homo sapiens, UniProt P24530)
T28 construct: gene EDNRB
Procedure: as §1

Dopamine D1 (Human) = target: T29, Dopamine D1 (Human) (Homo sapiens, UniProt P21728)
T29 construct: gene DRD1
Procedure: as §1

Vasopressin V1 = target: T30, Vasopressin V1 (Rattus norvegicus, UniProt P30560)
T30 construct: gene Avpr1a
Procedure: as §1

Bradykinin B2 (Human) = target: T31, Bradykinin B2 (Human) (Homo sapiens, UniProt P30411)
T31 construct: gene BDKRB2
Procedure: as §1

Opiate δ (Human) = target: T32, Opiate δ (Human) (Homo sapiens, UniProt P41143)
T32 construct: gene OPRD1
Procedure: as §1

Muscarinic M3 (Human) = target: T33, Muscarinic M3 (Human) (Homo sapiens, UniProt P20309)
T33 construct: gene CHRM3
Procedure: as §1

Melatonin MT1 (Human) = target: T34, Melatonin MT1 (Human) (Homo sapiens, UniProt P48039)
T34 construct: gene MTNR1A
Procedure: as §1

α2B-Adrenergic (Human) = target: T35, α2B-Adrenergic (Human) (Homo sapiens, UniProt P18089)
T35 construct: gene ADRA2B
Procedure: as §1

α1A-Adrenergic = target: T36, α1A-Adrenergic (Rattus norvegicus, UniProt P43140)
T36 construct: gene Adra1a
Procedure: as §1

Bradykinin B1 (Human) = target: T37, Bradykinin B1 (Human) (Homo sapiens, UniProt P46663)
T37 construct: gene BDKRB1
Procedure: as §1

Glucocorticoid (Human) = target: T38, Glucocorticoid (Human) (Homo sapiens, UniProt P04150)
T38 construct: gene NR3C1
Procedure: as §1

β2-Adrenergic (Human) = target: T39, β2-Adrenergic (Human) (Homo sapiens, UniProt P07550)
T39 construct: gene ADRB2
Procedure: as §1

Muscarinic M2 (Human) = target: T40, Muscarinic M2 (Human) (Homo sapiens, UniProt P08172)
T40 construct: gene CHRM2
Procedure: as §1

[4] = target: T41, Dopamine D2 short (Human) (Homo sapiens, UniProt P14416)
T41 construct: gene DRD2; short isoform
Procedure: as §1

CCK A (Human) = target: T42, CCK A (Human) (Homo sapiens, UniProt P32238)
T42 construct: gene CCKAR
Procedure: as §1

T1 sequence (P30542 whole entry): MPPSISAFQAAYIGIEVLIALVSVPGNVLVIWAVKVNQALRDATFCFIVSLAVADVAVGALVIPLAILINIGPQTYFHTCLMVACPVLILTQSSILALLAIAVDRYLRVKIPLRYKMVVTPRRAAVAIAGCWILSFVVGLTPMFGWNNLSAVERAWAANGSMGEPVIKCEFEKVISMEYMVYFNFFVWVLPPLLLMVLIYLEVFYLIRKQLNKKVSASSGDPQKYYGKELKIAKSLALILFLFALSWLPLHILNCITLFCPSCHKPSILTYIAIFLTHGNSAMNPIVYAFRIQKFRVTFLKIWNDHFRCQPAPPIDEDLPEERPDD
T22 sequence (P49146 whole entry): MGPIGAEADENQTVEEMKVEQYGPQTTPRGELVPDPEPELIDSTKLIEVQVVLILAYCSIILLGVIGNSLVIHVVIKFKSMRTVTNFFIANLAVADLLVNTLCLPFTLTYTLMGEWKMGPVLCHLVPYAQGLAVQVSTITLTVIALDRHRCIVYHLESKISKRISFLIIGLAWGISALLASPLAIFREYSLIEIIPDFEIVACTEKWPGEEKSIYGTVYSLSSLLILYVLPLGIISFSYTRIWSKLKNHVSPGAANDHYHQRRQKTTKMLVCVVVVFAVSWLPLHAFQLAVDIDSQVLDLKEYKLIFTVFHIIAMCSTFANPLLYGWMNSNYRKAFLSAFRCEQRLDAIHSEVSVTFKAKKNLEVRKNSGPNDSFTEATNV
T19 sequence (P28223 whole entry): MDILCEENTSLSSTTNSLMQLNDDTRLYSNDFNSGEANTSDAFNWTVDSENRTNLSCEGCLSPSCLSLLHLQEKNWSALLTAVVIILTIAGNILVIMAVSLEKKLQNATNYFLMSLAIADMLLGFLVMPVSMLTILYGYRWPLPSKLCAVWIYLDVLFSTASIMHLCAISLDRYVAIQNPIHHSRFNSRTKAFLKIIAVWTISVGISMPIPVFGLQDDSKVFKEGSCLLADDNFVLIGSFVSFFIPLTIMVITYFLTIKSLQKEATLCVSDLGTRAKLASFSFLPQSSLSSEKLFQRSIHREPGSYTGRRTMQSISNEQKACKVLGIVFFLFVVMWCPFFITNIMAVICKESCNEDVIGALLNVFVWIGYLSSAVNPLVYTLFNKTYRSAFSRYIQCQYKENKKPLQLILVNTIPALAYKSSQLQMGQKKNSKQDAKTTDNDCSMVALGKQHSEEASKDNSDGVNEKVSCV
T27 sequence (P46098 whole entry): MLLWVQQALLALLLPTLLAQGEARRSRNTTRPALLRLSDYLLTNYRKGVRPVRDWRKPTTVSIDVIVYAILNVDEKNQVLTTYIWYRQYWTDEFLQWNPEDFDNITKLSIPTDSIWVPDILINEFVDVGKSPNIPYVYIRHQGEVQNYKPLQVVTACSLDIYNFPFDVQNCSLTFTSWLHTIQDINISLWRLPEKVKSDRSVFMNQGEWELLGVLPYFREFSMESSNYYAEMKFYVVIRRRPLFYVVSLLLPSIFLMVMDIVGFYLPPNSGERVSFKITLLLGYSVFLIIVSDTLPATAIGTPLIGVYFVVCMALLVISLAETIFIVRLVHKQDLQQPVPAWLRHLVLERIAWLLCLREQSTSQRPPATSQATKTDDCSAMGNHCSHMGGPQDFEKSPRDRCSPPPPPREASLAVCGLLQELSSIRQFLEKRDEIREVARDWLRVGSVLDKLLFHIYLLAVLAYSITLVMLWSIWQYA
T34 sequence (P48039 whole entry): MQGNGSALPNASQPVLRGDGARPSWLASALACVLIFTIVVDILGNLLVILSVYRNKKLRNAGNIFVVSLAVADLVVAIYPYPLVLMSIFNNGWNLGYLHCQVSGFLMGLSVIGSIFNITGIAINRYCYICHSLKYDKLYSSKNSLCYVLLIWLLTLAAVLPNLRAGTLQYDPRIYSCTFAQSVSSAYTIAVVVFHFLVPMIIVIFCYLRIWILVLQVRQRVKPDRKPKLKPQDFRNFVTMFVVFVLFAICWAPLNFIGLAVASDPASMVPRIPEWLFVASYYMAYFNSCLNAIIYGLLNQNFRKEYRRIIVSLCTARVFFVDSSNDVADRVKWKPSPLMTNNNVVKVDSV
T39 sequence (P07550 whole entry): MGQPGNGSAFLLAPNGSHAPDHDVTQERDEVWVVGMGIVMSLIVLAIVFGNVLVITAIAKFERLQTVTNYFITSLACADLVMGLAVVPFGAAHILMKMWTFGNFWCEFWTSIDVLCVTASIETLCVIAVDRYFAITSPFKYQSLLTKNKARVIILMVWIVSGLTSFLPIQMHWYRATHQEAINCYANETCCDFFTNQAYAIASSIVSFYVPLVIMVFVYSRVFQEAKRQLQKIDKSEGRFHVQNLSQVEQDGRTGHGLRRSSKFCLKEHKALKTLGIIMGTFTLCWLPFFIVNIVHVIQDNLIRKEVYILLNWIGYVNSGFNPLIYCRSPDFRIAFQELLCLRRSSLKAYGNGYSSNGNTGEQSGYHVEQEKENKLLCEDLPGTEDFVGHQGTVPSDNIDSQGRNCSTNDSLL
T38 sequence (P04150 whole entry): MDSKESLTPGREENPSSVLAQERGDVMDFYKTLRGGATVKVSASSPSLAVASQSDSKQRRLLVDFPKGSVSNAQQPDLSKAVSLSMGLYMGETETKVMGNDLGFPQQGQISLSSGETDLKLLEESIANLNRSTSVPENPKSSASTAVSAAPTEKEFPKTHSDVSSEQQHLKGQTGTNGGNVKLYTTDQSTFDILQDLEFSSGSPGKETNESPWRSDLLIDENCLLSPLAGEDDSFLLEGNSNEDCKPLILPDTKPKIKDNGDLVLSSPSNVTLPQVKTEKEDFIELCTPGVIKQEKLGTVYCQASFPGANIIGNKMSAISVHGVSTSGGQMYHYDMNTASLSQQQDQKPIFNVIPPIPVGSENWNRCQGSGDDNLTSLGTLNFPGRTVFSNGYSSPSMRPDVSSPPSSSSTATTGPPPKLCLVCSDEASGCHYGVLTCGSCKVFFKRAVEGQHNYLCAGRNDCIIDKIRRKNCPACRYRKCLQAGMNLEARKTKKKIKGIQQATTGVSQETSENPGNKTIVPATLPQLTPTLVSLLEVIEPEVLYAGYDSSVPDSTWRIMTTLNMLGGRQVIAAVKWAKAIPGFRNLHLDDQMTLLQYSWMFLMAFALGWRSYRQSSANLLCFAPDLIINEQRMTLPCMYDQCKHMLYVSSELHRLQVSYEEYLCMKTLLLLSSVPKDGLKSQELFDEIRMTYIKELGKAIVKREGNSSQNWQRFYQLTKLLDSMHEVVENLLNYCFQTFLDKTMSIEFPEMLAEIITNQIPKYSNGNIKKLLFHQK
T29 sequence (P21728 whole entry): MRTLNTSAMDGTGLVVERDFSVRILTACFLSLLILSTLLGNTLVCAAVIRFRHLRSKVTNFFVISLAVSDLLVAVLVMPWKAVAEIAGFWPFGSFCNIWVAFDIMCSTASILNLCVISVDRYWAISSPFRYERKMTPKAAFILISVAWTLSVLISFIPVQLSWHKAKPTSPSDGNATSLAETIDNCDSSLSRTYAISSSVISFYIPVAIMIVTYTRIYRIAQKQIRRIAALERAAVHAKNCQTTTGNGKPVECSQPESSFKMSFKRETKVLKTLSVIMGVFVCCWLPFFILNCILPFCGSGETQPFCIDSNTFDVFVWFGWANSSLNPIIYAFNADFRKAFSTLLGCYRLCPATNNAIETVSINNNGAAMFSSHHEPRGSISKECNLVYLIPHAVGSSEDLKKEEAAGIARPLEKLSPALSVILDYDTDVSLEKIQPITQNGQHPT
T18 sequence (P29274 whole entry): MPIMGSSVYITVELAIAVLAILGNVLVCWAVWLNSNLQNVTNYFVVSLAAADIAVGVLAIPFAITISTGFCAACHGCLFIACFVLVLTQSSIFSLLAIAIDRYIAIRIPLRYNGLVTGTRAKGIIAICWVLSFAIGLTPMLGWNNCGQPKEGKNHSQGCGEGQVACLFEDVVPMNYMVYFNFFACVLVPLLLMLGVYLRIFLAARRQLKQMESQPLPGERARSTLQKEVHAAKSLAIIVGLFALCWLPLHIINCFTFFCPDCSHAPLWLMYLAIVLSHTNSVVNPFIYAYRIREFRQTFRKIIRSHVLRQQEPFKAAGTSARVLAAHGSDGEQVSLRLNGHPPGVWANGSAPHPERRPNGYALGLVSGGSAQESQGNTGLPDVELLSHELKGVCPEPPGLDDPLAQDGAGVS
T10 sequence (P08588 whole entry): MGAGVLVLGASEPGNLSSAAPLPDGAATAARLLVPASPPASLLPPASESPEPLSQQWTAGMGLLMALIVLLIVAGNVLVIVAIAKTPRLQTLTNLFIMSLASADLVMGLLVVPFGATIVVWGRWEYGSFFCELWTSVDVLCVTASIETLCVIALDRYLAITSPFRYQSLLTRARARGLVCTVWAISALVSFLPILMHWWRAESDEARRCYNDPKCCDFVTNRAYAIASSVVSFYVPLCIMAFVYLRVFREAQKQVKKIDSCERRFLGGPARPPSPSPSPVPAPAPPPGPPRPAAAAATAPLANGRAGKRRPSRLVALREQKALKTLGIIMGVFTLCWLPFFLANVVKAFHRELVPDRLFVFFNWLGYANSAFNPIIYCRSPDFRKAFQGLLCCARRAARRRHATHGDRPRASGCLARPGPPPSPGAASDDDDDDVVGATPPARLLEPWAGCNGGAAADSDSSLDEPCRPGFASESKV
T28 sequence (P24530 whole entry): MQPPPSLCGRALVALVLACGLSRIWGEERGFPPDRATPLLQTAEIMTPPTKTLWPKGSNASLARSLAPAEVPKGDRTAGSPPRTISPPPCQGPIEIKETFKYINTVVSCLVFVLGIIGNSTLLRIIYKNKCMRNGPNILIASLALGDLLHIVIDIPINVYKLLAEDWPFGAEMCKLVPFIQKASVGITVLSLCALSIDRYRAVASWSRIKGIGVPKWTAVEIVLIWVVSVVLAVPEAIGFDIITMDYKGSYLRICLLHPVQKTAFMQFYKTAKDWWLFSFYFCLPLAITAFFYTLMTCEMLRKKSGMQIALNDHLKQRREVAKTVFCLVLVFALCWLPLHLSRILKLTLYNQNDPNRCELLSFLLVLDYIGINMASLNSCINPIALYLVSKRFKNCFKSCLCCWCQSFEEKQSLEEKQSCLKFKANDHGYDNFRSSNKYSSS

Compound: COc1c(C)cnc(Cn2cnc3c(Cl)nc(N)nc32)c1C [BIIB021, 6-Chloro-9-[(4-methoxy-3,5-dimethylpyridin-2-yl)methyl]-9H-purin-2-amine]
- inhibition at 10 µM (Adenosine A1 (Human)): 8.4%
- inhibition at 10 µM (GABA B): 0%
- inhibition at 10 µM (Cannabinoid CB1 (Human)): 5.1%
- inhibition at 10 µM [1]: 1.1%
- inhibition at 10 µM (Serotonin 5HT1A (Human)): 7.6%
- inhibition at 10 µM (Endothelin ETA (Human)): 4.8%
- inhibition at 10 µM (Sigma σ2): 2.4%
- inhibition at 10 µM [2]: 0%
- inhibition at 10 µM (Neurokinin NK1 (Human)): 6.2%
- inhibition at 10 µM (β1-Adrenergic (Human)): 0%
- inhibition at 10 µM (Histamine H1 (Human)): 8.1%
- inhibition at 10 µM (Opiate μ (Human)): 0%
- inhibition at 10 µM (α1B-Adrenergic): 0%
- inhibition at 10 µM (Muscarinic M1 (Human)): 1.5%
- inhibition at 10 µM (Angiotensin AT1 (Human)): 0%
- inhibition at 10 µM (Androgen): 0.7%
- inhibition at 10 µM (Histamine H3 (Human)): 4.5%
- inhibition at 10 µM (Adenosine A2a (Human)): 14%
- inhibition at 10 µM (Serotonin 5HT2A (Human)): 4.9%
- inhibition at 10 µM [3]: 0%
- inhibition at 10 µM (Histamine H2 (Human)): 0.7%
- inhibition at 10 µM (Neuropeptide Y2 (Human)): 1.3%
- inhibition at 10 µM (Cannabinoid CB2 (Human)): 0%
- inhibition at 10 µM (α2A-Adrenergic (Human)): 13%
- inhibition at 10 µM (Opiate κ (Human)): 14%
- inhibition at 10 µM (Dopamine D3 (Human)): 0.4%
- inhibition at 10 µM (Serotonin 5HT3 (Human)): 18%
- inhibition at 10 µM (Endothelin ETB (Human)): 4.7%
- inhibition at 10 µM (Dopamine D1 (Human)): 16%
- inhibition at 10 µM (Vasopressin V1): 3%
- inhibition at 10 µM (Bradykinin B2 (Human)): 0%
- inhibition at 10 µM (Opiate δ (Human)): 4.2%
- inhibition at 10 µM (Muscarinic M3 (Human)): 1.9%
- inhibition at 10 µM (Melatonin MT1 (Human)): 26%
- inhibition at 10 µM (α2B-Adrenergic (Human)): 0%
- inhibition at 10 µM (α1A-Adrenergic): 1.8%
- inhibition at 10 µM (Bradykinin B1 (Human)): 0%
- inhibition at 10 µM (Glucocorticoid (Human)): 0%
- inhibition at 10 µM (β2-Adrenergic (Human)): 0.9%
- inhibition at 10 µM (Muscarinic M2 (Human)): 4.6%
- inhibition at 10 µM [4]: 0.9%
- inhibition at 10 µM (CCK A (Human)): 2.8%

Source: publication PMC10912062, “A novel PET probe to selectively image heat shock protein 90α/β isoforms in the brain” (EJNMMI Radiopharmacy and Chemistry, 2024)
